In US20230124634A1, “ANTIBACTERIAL COMPOSITION” (CONOPCO, INC., D/B/A UNILEVER, priority 2020, published 2023):

How the values were obtained:
[1] = test system: Staphylococcus aureus ATCC 6538; assay: In-Vitro Time-Kill assay (EN 1040:2005 with minor modifications); type: cell-based
Procedure: Inoculums of S. aureus at about 10^7.5 colony forming units per milliliter (CFU/mL) were prepared from 24-hour cultures on agar plates. […]
The log10 of (number of surviving cells (CFU/mL)/initial number of cells) is plotted versus the exposure time. […] The exposure time is limited to only 60 s, as this time frame is a realistic estimate of the amount of time devoted to hand washing.
Surfactant Solution Preparation—Solution preparation consisted of mixing the surfactant solution with an equal volume of the appropriate buffer to form a test solution containing 50% of the original formulation concentration. Sodium carbonate/bicarbonates buffers (0.1 M) were prepared for use at pH 10 and 7, respectively, while sodium acetate buffer was used at pH 5.
The bacteria were stored at −80° C. and fresh working cultures were prepared by streaking on Tryptic Soy Agar plates for 24 hours at 37° C. and then preparing second subcultures in the same way before each experiment.
Following this procedure, stationary-phase bacterial cultures at approximately […] colony forming units (CFU) per mL (GF-U) were treated with the surfactant solution (as described above) at 25° C., rather than at 20° C. as specified in the Standard. In constructing the test sample, 8 parts by weight of the surfactant solution was combined with 1 part by weight of the culture and 1 part by weight of water. After 10, 20, 30, and 60 seconds of exposure, the samples were neutralized to arrest the antibacterial activity of the surfactant solution. […] The test solutions were serially diluted, plated on solid medium, and incubated for 24 hours. The surviving cells were then enumerated. Bactericidal activity was defined as the log10 reduction in CFU relative to the initial bacterial concentration at 0 seconds. Cultures not exposed to surfactant solution acted as the no-treatment controls. The log10 reduction was calculated using the formula:
log10 reduction=log10(CFU in no-treatment control)−log10(CFU in treated sample)

[2] = cited from earlier work
[3] = pH 5; cited from earlier work
[4] = Silver ion solubility derived from solubility product (Ksp) in water at 25° C.; settings: calculated from Ksp
Excerpt: More particularly, silver ion solubility [Ag+], a value given in mol/L may be calculated using the formula:

[5] = throughout the pH interval claimed

sodium lauroamphoacetate [reference compound]
biocidal, inherently or in combination with silver ion ([1]; pH 7): ineffective

sodium lauryl ether sulfate [SLES]
synergy with silver ion ([1]; pH 5): strong synergy with silver ion
log10 reduction ([1]; pH 5, on its own): about 2 log10
log10 unit reduction ([1]; pH 7, SLES at 1% (top-half of Table 5)): ≤ 1 log10
log10 unit reduction ([1]; pH 7, SLES at 10% (second half of Table 5)): ≤ 1 log10

[Br][Ag] [Silver bromide]
Ksp (mol/L in water at 25° C.) [2]: 5.3e-13 mol/L

O=[N+]([O-])[O-].[Na+] [NaNO3, sodium nitrate]
NaNO3 necessary to recover a one unit log10 reduction in S. aureus ([1]; in the presence of 0.03 M NaCl, SLES/Ag^+, pH 7.0): ≥ 0.3 M

O=C([O-])CC(O)(CC(=O)[O-])C(=O)[O-].[Ag+].[Ag+].[Ag+] [Silver citrate]
Ksp (mol/L in water at 25° C.) [2]: 2.5e-16 mol/L

sodium lauryl ether sulfate with (on average) 1 ethoxy group [SLES-1 EO]
log10 reduction ([1]; pH range of 7-10, in the presence of silver ion): about 4 log10
log10 reduction ([1]; pH range of 7-10, without silver): about 0.5 log10
inherent biocidal action [1, 5]: limited inherent biocidal action
synergy with silver ion [1, 5]: strong synergy with silver ion

sodium lauryl ether sulfate with (on average) 3 ethoxy groups [SLES-3EO]
inherent biocidal action [1, 5]: limited inherent biocidal action
synergy with silver ion [1, 5]: strong synergy with silver ion

Sodium methyl cocoyl taurate [reference compound]
synergy with silver ion ([1]; pH 5): nor does it enhance the biocidal action of silver ion
intrinsic biocidal properties ([1]; pH 5, on its own): does not have intrinsic biocidal properties
biocidal, inherently or in combination with silver ion ([1]; pH 7): ineffective

[Ag+] [silver ion]
minimum level of silver ion necessary to see enhanced biocidal action ([1]; in the presence of 10% SLES and 0.5 M NaNO3, pH 7 and 25° C.): ≥ 0.03 ppm

sodium cocoyl glycinate [reference compound]
biocidal, inherently or in combination with silver ion ([1]; pH 7): ineffective

octyl phenol ethoxylate [Triton X-100, reference compound]
biocidal, inherently or in combination with silver ion ([1]; pH 5, 10-60 second time scale): not biocidal
biocidal, inherently or in combination with silver ion ([1]; pH 7): ineffective

O=S(=O)([O-])[O-].[Ag+].[Ag+] [Silver sulfate]
Ksp (mol/L in water at 25° C.) [2]: 1.4e-05 mol/L

O=C(O)c1ccccc1 [benzoic acid]
percentage of organic acid preservative remaining undissociated (and active) [3]: 13%

[Cl][Ag] [Silver chloride]
Silver Ion Solubility [Ag+] (mol/L in water at 25° C.) [4]: 1.3e-05 mol/L
Ksp (mol/L in water at 25° C.) [2]: 1.8e-10 mol/L

C/C=C/C=C/C(=O)O [sorbic acid]
percentage of organic acid preservative remaining undissociated (and active) [3]: 37%

sodium cocoyl glutamate [reference compound]
biocidal, inherently or in combination with silver ion ([1]; pH 7): ineffective

O=C([O-])c1ccccc1.[Ag+] [Silver benzoate]
Ksp (mol/L in water at 25° C.) [2]: 2.5e-05 mol/L

CCCCCCCCCCCCOS(=O)(=O)[O-].[Na+] [SDS, sodium dodecyl sulfate]
synergy with silver ion ([1]; pH 5): strong synergy with silver ion
intrinsic biocidal properties ([1]; pH 5, on its own): quite biocidal on its own
inherent biocidal action [1, 5]: limited inherent biocidal action
synergy with silver ion [1, 5]: strong synergy with silver ion
